In test [1] the target is BIR3 domain of human cIAP-1 (residues 267-363) (Homo sapiens (Human), UniProt Q13490). Briefly: cIAP-1 in vitro competitive displacement binding assay (fluorescence polarization; Probe A AVPIK(5&6FAM)-amide or Probe B AbuRPFK(5&6FAM)-amide). (Fluorescence polarisation rises when a labelled molecule tumbles more slowly, as on binding a larger partner.)
Test [2] addresses BIR3 domain of human XIAP (residues 252-350) (Homo sapiens (Human), UniProt P98170). Briefly: XIAP in vitro competitive displacement binding assay (fluorescence polarization). To be noted: for IC50: read-out: IC50 or PI Xiap: IC50.
Setting [3] is: Probe B AbuRPFK(5&6FAM)-amide, read-out: IC50 or PI cIAP1: IC50.
Setting [4] is: read-out: IC50 or PI cIAP1: IC50.
The mark [5] stands for this setting: Probe A AVPIK(5&6FAM)-amide, read-out: IC50 or PI cIAP1: IC50.
Where [6] appears, read: 1 h, read-out: IC50 or PI Xiap: PI.
[7] abbreviates: 3 h, Probe A, read-out: IC50 or PI cIAP1: PI.

Counter-ions that a name gives are not always drawn. Like-named read-outs stand apart in the source and are kept apart here.

Take `COC[C@H]1CN[C@H](C)CN1CC(=O)N1CC(C)(c2ccccn2)c2ccc(C#N)cc21` (mixture of isomers) [Example 156, 1-{2-[(2R,5R)-2-(Methoxymethyl)-5-methylpiperazin-1-yl]acetyl}-3-methyl-3-(pyridin-2-yl)-2,3-dihydro-1H-indole-6-carbonitrile hydrochloride [mixture of diastereoisomers]]: the IC50 (usually the concentration needed to halve the response being measured) in test [1] (setting [3]) was determined as 1.3 µM; in test [2], 1.5 µM.
Take `C[C@@H]1CN(CC(=O)N2CCc3ccc(N(C)c4ccccc4)cc32)CCN1` [Example 2, 1-[6-(Methyl-phenyl-amino)-2,3-dihydro-indol-1-yl]-2-((R)-3-methyl-piperazin-1-yl)-ethanone Trifluoroacetate salt]: the IC50 in test [1] (setting [4]) was 79 µM; in test [2], 41 µM.
`C[C@@H]1CN(CC(=O)N2CCc3ccc(Nc4ccccc4)cc32)CCN1` [Example 3, 2-((R)-3-Methyl-piperazin-1-yl)-1-(6-phenylamino-2,3-dihydro-indol-1-yl)-ethanone Trifluoroacetate salt]: in test [1] (3 h, read-out: IC50 or PI cIAP1: PI), the inhibition at 99 µM turned out to be 48%.
For `C[C@@H]1CN(CC(=O)N2CCc3ccc(Cl)cc32)CCN1` [Example 4, 1-(6-Chloro-2,3-dihydro-indol-1-yl)-2-((R)-3-methyl-piperazin-1-yl)-ethanone], the IC50 in test [1] (setting [5]) stood at 29 µM.
As to `COc1ccc2c(c1)N(C(=O)CN1CCN[C@H](C)C1)CC2` [Example 5, 1-(6-Methoxy-2,3-dihydro-indol-1-yl)-2-((R)-3-methyl-piperazin-1-yl)-ethanone], the IC50 in test [1] (setting [5]) was 78 µM. The inhibition at 160 µM in test [2] (setting [6]) is 49%.
On to `Cc1ccc2c(c1)N(C(=O)CN1CCN[C@H](C)C1)CC2` [Example 6, 1-(6-Methyl-2,3-dihydro-indol-1-yl)-2-((R)-3-methyl-piperazin-1-yl)-ethanone], for which the concentration for half-maximal inhibition (IC50) in test [1] (setting [5]) was 95 µM.
Consider `C[C@@H]1CN(CC(=O)N2CCc3ccc(N)cc32)CCN1` [Example 7, 1-(6-Amino-2,3-dihydro-indol-1-yl)-2-((R)-3-methyl-piperazin-1-yl)-ethanone], for which, in test [1] (3 h, Probe A, @ 5000 μM, read-out: IC50 or PI cIAP1: PI), the inhibition at 5000 µM was -30%. In test [2] (1 h, @ 1600 μM, read-out: IC50 or PI Xiap: PI), the inhibition at 1600 µM stood at 43%.
Consider `C[C@@H]1CN(CC(=O)N2CCc3ccc(NS(C)(=O)=O)cc32)CCN1` [Example 8, N-{1-[2-((R)-3-Methyl-piperazin-1-yl)-acetyl]-2,3-dihydro-1H-indol-6-yl}-methane-sulfonamide], for which the inhibition at 160 µM is 46% in test [1] (setting [7]) and 59% in test [2] (setting [6]).
`C[C@@H]1CN(CC(=O)N2CCc3cc(F)ccc32)CCN1` [Example 9, 1-(5-Fluoro-2,3-dihydro-indol-1-yl)-2-((R)-3-methyl-piperazin-1-yl)-ethanone]: the IC50 in test [1] (setting [5]) turned out to be 170 µM; in test [2], 130 µM.
In the case of `C[C@@H]1CN(CC(=O)N2CCc3ccc(F)cc32)CCN1` [Example 10, 1-(6-Fluoro-2,3-dihydro-indol-1-yl)-2-((R)-3-methyl-piperazin-1-yl)-ethanone], in test [1] (setting [7]), the inhibition at 160 µM was determined as 51%.
In the case of `C[C@@H]1CN(CC(=O)N2CCc3cc(Br)ccc32)CCN1` [Example 11, 1-(5-Bromo-2,3-dihydro-indol-1-yl)-2-((R)-3-methyl-piperazin-1-yl)-ethanone], the inhibition at 100 µM worked out at 46% in test [1] (setting [7]) and 59% in test [2] (1 h, @ 100 μM, read-out: IC50 or PI Xiap: PI).
Regarding `CC(C)[C@H]1CN[C@H](C)CN1CC(=O)N1CCc2ccc(Br)cc21` [Example 12, 1-(6-Bromo-2,3-dihydro-indol-1-yl)-2-((2S,5R)-2-isopropyl-5-methyl-piperazin-1-yl)-ethanone], the IC50 in test [1] is under 10 µM.
As for `CC(C)c1ccc2c(c1)N(C(=O)CN1CCN[C@H](C)C1)CC2` [Example 13, 1-(6-Isopropyl-2,3-dihydro-indol-1-yl)-2-((R)-3-methyl-piperazin-1-yl)-ethanone], the IC50 in test [1] (setting [5]) was 63 µM.
Take `C[C@@H]1CN(CC(=O)N2CCc3cnccc32)CCN1` [Example 14, 1-(2,3-Dihydro-pyrrolo[3,2-c]pyridin-1-yl)-2-((R)-3-methyl-piperazin-1-yl)-ethanone]: the inhibition at 160 µM in test [1] (setting [7]) worked out at 46%. Also, in test [2] (1 h, @ 99 μM, read-out: IC50 or PI Xiap: PI), the inhibition at 99 µM came to 53%.
As for `COC(=O)c1ccc2c(c1)N(C(=O)CN1CCN[C@H](C)C1)CC2` [Example 15, 1-[2-((R)-3-Methyl-piperazin-1-yl)-acetyl]-2,3-dihydro-1H-indole-6-carboxylic acid methyl ester], the IC50 in test [1] is under 10 µM; in test [1] (setting [4]) it was 6.8 µM; in test [2] it was 19 µM.
On to `CNC(=O)c1ccc2c(c1)N(C(=O)CN1CCN[C@H](C)C1)CC2` [Example 16, 1-[2-((R)-3-Methyl-piperazin-1-yl)-acetyl]-2,3-dihydro-1H-indole-6-carboxylic acid methylamide], for which the inhibition at 250 µM in test [1] (3 h, Probe A, @ 250 μM, read-out: IC50 or PI cIAP1: PI) is 56%. In test [2] (1 h, @ 77 μM, read-out: IC50 or PI Xiap: PI), the inhibition at 77 µM turned out to be 42%.
`C[C@@H]1CN(CC(=O)N2CCc3ccc(C(=O)N(C)C)cc32)CCN1` [Example 17, 1-[2-((R)-3-Methyl-piperazin-1-yl)-acetyl]-2,3-dihydro-1H-indole-6-carboxylic acid dimethylamide]: the inhibition at 160 µM in test [1] (setting [7]) is 44%. For the same molecule, the IC50 in test [2] is 110 µM.
As to `C[C@@H]1CN(CC(=O)N2CCc3ccc(C(F)(F)F)cc32)CCN1` [Example 22, 2-((R)-3-Methyl-piperazin-1-yl)-1-(6-trifluoromethyl-2,3-dihydro-indol-1-yl)-ethanone], the half-inhibitory concentration (IC50) in test [1] (setting [5]) was found to be 36 µM.
In the case of `C[C@@H]1CN(CC(=O)N2CCc3ccc(S(C)(=O)=O)cc32)CCN1` [Example 30, 1-(6-Methane-sulfonyl-2,3-dihydro-indol-1-yl)-2-((R)-3-methyl-piperazin-1-yl)-ethanone hydrochloride salt], the inhibition at 99 µM in test [1] (3 h, Probe A, @ 99 μM, read-out: IC50 or PI cIAP1: PI) came to 60%.
On to `COC[C@H]1CN[C@H](C)CN1CC(=O)N1CC(C)(C)c2cnc(CC(C)C)cc21` [Example 72, 1-(6-Isobutyl-3,3-dimethyl-2,3-dihydro-pyrrolo[3,2-c]pyridin-1-yl)-2-((2R,5R)-2-methoxymethyl-5-methyl-piperazin-1-yl)-ethanone], for which the IC50 in test [1] (setting [3]) was found to be 0.31 µM.
Still for that read-out and setting: under `COC[C@H]1CN[C@H](C)CN1CC(=O)N1CC(C)(C)c2cnc(Cc3ccc(OC)cc3)cc21` [Example 98, 2-[(2R,5R)-2-(Methoxymethyl)-5-methylpiperazin-1-yl]-1-{6-[(4-methoxyphenyl)methyl]-3,3-dimethyl-1H,2H,3H-pyrrolo[3,2-c]pyridin-1-yl}ethan-1-one, hydrochloride salt] stands 0.023 µM.
Same read-out and setting: then `COC[C@H]1CN[C@H](C)CN1CC(=O)N1CC(C)(Cc2ccccc2)c2ccc(Cl)cc21` (stereo partly drawn) [Example 107, 1-(3-Benzyl-6-chloro-3-methyl-2,3-dihydro-1H-indol-1-yl)-2-[(2R,5R)-2-(methoxymethyl)-5-methylpiperazin-1-yl]ethan-1-one, hydrochloride salt], with 0.55 µM.
For the molecule `CC1(C)CN(C(=O)CN2CCNC(C(F)(F)F)C2)c2cc(Cc3ccccc3)ncc21` (stereo not drawn) [Example 113, 1-{6-Benzyl-3,3-dimethyl-1H,2H,3H-pyrrolo[3,2-c]pyridin-1-yl}-2-[3-(trifluoromethyl)piperazin-1-yl]ethan-1-one], the inhibition at 100 µM in test [1] (3 h, Probe B, read-out: IC50 or PI cIAP1: PI) was 6%.
`CC1(C)CN(C(=O)CN2CCNC(CF)C2)c2cc(Cc3ccccc3)ncc21` (stereo not drawn) [Example 114, 1-{6-Benzyl-3,3-dimethyl-1H,2H,3H-pyrrolo[3,2-c]pyridin-1-yl}-2-[3-(fluoromethyl)piperazin-1-yl]ethan-1-one]: the concentration for half-maximal inhibition (IC50) in test [1] (setting [3]) turned out to be 1.5 µM.
Still for that read-out and setting: under `CC1(C)CN(C(=O)CN2CCN[C@H](CF)C2)c2cc(Cc3ccccc3)ncc21` [Example 115, 1-{6-Benzyl-3,3-dimethyl-1H,2H,3H-pyrrolo[3,2-c]pyridin-1-yl}-2-[(3S)-3-(fluoromethyl)piperazin-1-yl]ethan-1-one] stands 0.67 µM; under `CC1(C)CN(C(=O)CN2CCN[C@@H](CF)C2)c2cc(Cc3ccccc3)ncc21` [Example 116, 1-{6-Benzyl-3,3-dimethyl-1H,2H,3H-pyrrolo[3,2-c]pyridin-1-yl}-2-[(3R)-3-(fluoromethyl)piperazin-1-yl]ethan-1-one], 1.9 µM.
Regarding `COC[C@H]1CN[C@H](C)CN1CC(=O)N1C[C@@](C)(c2ccccc2)c2ccc(C#N)cc21` [Example 139, (3S)-1-{2-[(2R,5R)-2-(Methoxymethyl)-5-methylpiperazin-1-yl]acetyl}-3-methyl-3-phenyl-2,3-dihydro-1H-indole-6-carbonitrile], in test [2], the half-inhibitory concentration (IC50) was determined as 0.23 µM.
As for `C[C@@H]1CN(CC(=O)N2CC(C)(C)c3ncc(C(C)(F)F)cc32)[C@@H](CN2CCCC2=O)CN1` [Example 188, 1-{[(2R,5R)-1-{2-[6-(1,1-Difluoroethyl)-3,3-dimethyl-1H,2H,3H-pyrrolo[3,2-b]pyridin-1-yl]-2-oxoethyl}-5-methylpiperazin-2-yl]methyl}pyrrolidin-2-one dihydrochloride], the IC50 in test [1] (setting [4]) worked out at 0.04 µM.
Take `C[C@@H]1CN(CC(=O)N2CC(C)(C)c3ncc(Cc4ccc(F)cc4)cc32)CCN1` [Example 265, 1-[6-(4-Fluoro-benzyl)-3,3-dimethyl-2,3-dihydro-pyrrolo[3,2-b]pyridin-1-yl]-2-((R)-3-methyl-piperazin-1-yl)-ethanone]: the 50% inhibitory concentration (IC50) in test [1] is under 10 µM; in test [1] (setting [4]), 0.041 µM.
